Experimental data: patent US20240408169A1 (priority 2023, published 2024)
Where two headings read alike, the source gives them in different places. *1 amine or outer side, *2 acyl side, *3 side chain or, on linkers, in order; H or OH if unused. Where a SMILES comes first, the peptide text is derived from it. Bridges are numbered along the chain shown (N, C = ends). [ ]: non-standard residue; d: D form. The star is where a group is joined. X122 = CN([C@@H](Cc1cc(Cl)ccc1C1=CCN(C(=O)C(C)(C)C)CC1)C(=O)[*:2])[*:1]; X187 = CC(=O)N1CC=C(c2ccc(Cl)cc2C[C@@H](C(=O)[*:2])N(C)[*:1])C1; X166 = CN([C@@H](Cc1cc(F)ccc1C1=CC2COCC(C1)N2)C(=O)[*:2])[*:1]; X177 = CN([C@@H](Cc1cc(F)ccc1C1=CC2CCC(C1)N2)C(=O)[*:2])[*:1]; X26 = CN([C@@H](Cc1cc(F)ccc1-c1cnn(C2CC2)c1)C(=O)[*:2])[*:1]; NMehhhLys(Me) = CN([C@@H](CCCCCCCN(C)[*:3])C(=O)[*:2])[*:1]; X168 = Cc1ncc(-c2ccc(Cl)cc2C[C@@H](C(=O)[*:2])N(C)[*:1])o1; X206 = CN([C@@H](Cc1cc(Cl)cnc1Cc1cnn(C)c1)C(=O)[*:2])[*:1]; NMe(hhhLys) = CN([C@@H](CCCCCCCN[*:3])C(=O)[*:2])[*:1]; Oxane2carbonyl(2R-CF3) = O=C([C@@]1(C(F)(F)F)CCCCO1)*; cBuCO(3,3-F2-1-CF3) = O=C(C1(C(F)(F)F)CC(F)(F)C1)*; Pro(trans-4-F) = O=C(O)[C@@H]1C[C@@H](F)CN1; Gly(cPr) = N[C@H](C(=O)O)C1CC1

How the values were obtained:
CyclinA2/CDK2 = target: T1, CyclinA2/CDK2 (Homo sapiens, UniProt P20248); test: Fluorescence Polarization (FP) competitive binding assay, Cyclin A2/Cdk2;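 note: plates equilibrated two hours at room temperature before polarization reading, IC50 fitted from eight-concentration compound titration curves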
T1 construct: purchased CRELUX Protein Services

CyclinB1/CDK1 = target: T2, CyclinB1/CDK1 (Homo sapiens, UniProt P14635); test: Fluorescence Polarization (FP) competitive binding assay, Cyclin B1/Cdk1;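 note: fluorescence polarization read after equilibration at room temperature, with IC50 taken from serially diluted dose-response curves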
T2 construct: purchased Eurofins, discovery 14-450

NCI-H1048 cells = test: MTT proliferation assay, NCI-H1048; type: cell-based; conditions: 5 days compound exposure, 1:3 serial dilution starting at 10 μM;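 note: Dose-response in 96-well plates over 8 or 10 concentration points, with exposure spanning 3-4 cell doublings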
OVCAR3 cells = test: MTT proliferation assay, OVCAR3; type: cell-based; conditions: 5 days compound exposure, 1:3 serial dilution starting at 10 μM;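 note: compound given as an 8- or 10-point series, one day after plating, with exposure covering roughly 3-4 cell doublings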
CyclinE1/CDK2 = target: T3, CyclinE1/CDK2 (Homo sapiens, UniProt P24864); test: Fluorescence Polarization (FP) competitive binding assay, Cyclin E1/Cdk2;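 note: readings taken after two-hour equilibration at room temperature in HEPES buffer with NaCl, DTT, NP-40 and BSA, IC50 fitted from eight-concentration serial dilution series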
T3 construct: purchased Eurofins, discovery 14-475

[1] = 8 nM Cyclin A2/Cdk2, 2 nM FAM probe; average of 2-3 independent experiments; read-out: Cyclin A FP IC50
[2] = 10 nM Cyclin B1/Cdk1, 2 nM FAM probe; average of 2-3 independent experiments; read-out: Cyclin B FP IC50
[3] = 10 nM Cyclin E1/Cdk2, 2 nM FAM probe, average of 2-3 independent experiments, read-out: Cyclin E FP IC50

Row | SMILES | IC50 (CyclinA2/CDK2; [1]) [nM] | IC50 (CyclinB1/CDK1; [2]) [nM] | GI50 (NCI-H1048 cells) [nM] | GI50 (OVCAR3 cells) [nM] | IC50 (CyclinE1/CDK2; [3]) [nM] | IC50 (CyclinA2/CDK2; read-out: Cyclin A FP IC50; 8 nM Cyclin A2/Cdk2, 2 nM FAM probe; average of 2-3 independent experiments) [nM] | IC50 (CyclinB1/CDK1; read-out: Cyclin B FP IC50; 10 nM Cyclin B1/Cdk1, 2 nM FAM probe; average of 2-3 independent experiments) [nM] | IC50 (CyclinE1/CDK2) [nM]
1 | CC(C)C[C@@H]1NC(=O)[C@@H](N(C)C(=O)[C@@H](NC(=O)[C@@H]2C[C@@H](F)CN2C(=O)C2(C(F)(F)F)CC(F)(F)C2)C2CC2)CC=CCCCCN(C)C(=O)[C@H](Cc2cc(Cl)ccc2-c2cnn(C)c2)N(C)C1=O [Example 29] | 30 | 20 | 40 | 70 | 690 |  |  | 
2 | CC(C)C[C@@H]1NC(=O)[C@@H](N(C)C(=O)[C@@H](NC(=O)[C@@H]2C[C@@H](F)CN2C(=O)C2(C(F)(F)F)CC(F)(F)C2)C2CC2)CCCC=CCCNC(=O)[C@H](Cc2cc(Cl)ccc2-c2cnn(C)c2)N(C)C1=O [Example 285] | 60 | 20 | 50 | 30 | 1700 |  |  | 
3 | CC(=O)N1CC=C(c2ccc(Cl)cc2C[C@H]2C(=O)N(C)CCCCCCC[C@H](N(C)C(=O)[C@@H](NC(=O)[C@@H]3C[C@@H](F)CN3C(=O)C3(C(F)(F)F)CC(F)(F)C3)C3CC3)C(=O)N[C@@H](CC(C)C)C(=O)N2C)C1 [Example 308] ({cBuCO(3,3-F2-1-CF3)}-[Pro(trans-4-F)][Gly(cPr)][NMehhhLys(Me)]L[X187]; lactam 3-C) | 20 | 20 | 10 | 10 | 840 |  |  | 
4 | CC(C)C[C@@H]1NC(=O)[C@@H](N(C)C(=O)[C@@H](NC(=O)[C@@H]2C[C@@H](F)CN2C(=O)C2(C(F)(F)F)CC(F)(F)C2)C2CC2)CCCCCCCN(C)C(=O)[C@H](Cc2cc(F)ccc2C2=CC3COCC(C2)N3)N(C)C1=O (stereo partly drawn) [Example 166] ({cBuCO(3,3-F2-1-CF3)}-[Pro(trans-4-F)][Gly(cPr)][NMehhhLys(Me)]L[X166]; lactam 3-C) | 60 | 20 | 40 | 100 | 2300 |  |  | 
5 | CC(C)C[C@@H]1NC(=O)[C@@H](N(C)C(=O)[C@@H](NC(=O)[C@@H]2C[C@@H](F)CN2C(=O)C2(C(F)(F)F)CC(F)(F)C2)C2CC2)CCCCCCCNC(=O)[C@H](Cc2cc(F)ccc2-c2cnn(C3CC3)c2)N(C)C1=O [Example 213] ({cBuCO(3,3-F2-1-CF3)}-[Pro(trans-4-F)][Gly(cPr)][NMe(hhhLys)]L[X26]; lactam 3-C) | 30 | 20 | 10 | 10 | 190 |  |  | 
6 | CC(C)C[C@@H]1NC(=O)[C@@H](N(C)C(=O)[C@@H](NC(=O)[C@@H]2C[C@@H](F)CN2C(=O)[C@@]2(C(F)(F)F)CCCCO2)C2CC2)CCCCCCCN(C)C(=O)[C@H](Cc2cc(Cl)cnc2Cc2cnn(C)c2)N(C)C1=O [Example 332] ({Oxane2carbonyl(2R-CF3)}-[Pro(trans-4-F)][Gly(cPr)][NMehhhLys(Me)]L[X206]; lactam 3-C) | 20 | 20 | 10 | 10 | 100 |  |  | 
7 | CC(C)C[C@@H]1NC(=O)[C@@H](N(C)C(=O)[C@@H](NC(=O)[C@@H]2C[C@@H](F)CN2C(=O)C2(C(F)(F)F)CC(F)(F)C2)C2CC2)C/C=C\CCCCN(C)C(=O)[C@H](Cc2cc(F)ccc2-c2cnn(S(C)(=O)=O)c2)N(C)C1=O [Example 278] | 70 | 20 | 10 | 10 | 280 |  |  | 
8 | Cc1ncc(-c2ccc(Cl)cc2C[C@H]2C(=O)N(C)CCCCCCC[C@H](N(C)C(=O)[C@@H](NC(=O)[C@@H]3C[C@@H](F)CN3C(=O)C3(C(F)(F)F)CC(F)(F)C3)C3CC3)C(=O)N[C@@H](CC(C)C)C(=O)N2C)o1 [Example 206] ({cBuCO(3,3-F2-1-CF3)}-[Pro(trans-4-F)][Gly(cPr)][NMehhhLys(Me)]L[X168]; lactam 3-C) |  |  | 10 | 20 |  | 20 | 20 | 200
9 | CC(C)C[C@@H]1NC(=O)[C@@H](N(C)C(=O)[C@@H](NC(=O)[C@@H]2C[C@@H](F)CN2C(=O)C2(C(F)(F)F)CC(F)(F)C2)C2CC2)CCCCCCCN(C)C(=O)[C@H](Cc2cc(F)ccc2C2=CC3CCC(C2)N3)N(C)C1=O (stereo partly drawn) [Example 165, (2S,4R)—N-((1S)-2-(((3S,6S,9S)-3-(2-(8-azabicyclo[3.2.1]oct-2-en-3-yl)-5-fluorobenzyl)-6-isobutyl-1,4-dimethyl-2,5,8-trioxo-1,4,7-triazacyclohexadecan-9-yl)(methyl)amino)-1-cyclopropyl-2-oxoethyl)-1-(3,3-difluoro-1-(trifluoromethyl)cyclobutane-1-carbonyl)-4-fluoropyrrolidine-2-carboxamide] ({cBuCO(3,3-F2-1-CF3)}-[Pro(trans-4-F)][Gly(cPr)][NMehhhLys(Me)]L[X177]; lactam 3-C) | 110 | 20 | 340 | 1670 | 5470 |  |  | 
10 | CC(C)C[C@@H]1NC(=O)[C@@H](N(C)C(=O)[C@@H](NC(=O)[C@@H]2C[C@@H](F)CN2C(=O)C2(C(F)(F)F)CC(F)(F)C2)C2CC2)CCCCCCCNC(=O)[C@H](Cc2cc(Cl)ccc2C2=CCN(C(=O)C(C)(C)C)CC2)N(C)C1=O [Example 99] ({cBuCO(3,3-F2-1-CF3)}-[Pro(trans-4-F)][Gly(cPr)][NMe(hhhLys)]L[X122]; lactam 3-C) | 20 | 20 | 20 | 30 | 1540 |  |  | 
